Tests used:
[1] = T1 relaxation time in solution at 14.1 T; type: physicochemical; settings: for High field liquid state T1: 14.1 T magnet, phosphate buffer, pH 7.1-7.2
Protocol: The ester was only partly hydrolyzed.
The T1 of the hydrolyzed product, succinate is 33 s (14.1 T and 37° C.).
The sample was dissolved in 5 ml phosphate buffer (100 mM, pH 7) with added one equivalent HCl. The pH is 7.1 after dissolution.
The pH is 7.2 after dissolution.

[2] = Glass formation of the DNP preparation upon rapid freezing in liquid nitrogen; type: physicochemical
Protocol: Butyric acid (11.7 mg, 0.13 mmol) was placed into an Eppendorf tube and mixed with 9.0 mg of a glycerol solution containing 39 mM of Radical 1. This preparation was 7 M with respect to butyric acid.
Butyric anhydride (40 μl, 0.24 mmol) was added to an Eppendorf tube and mixed with 1 mg of Radical 3 in a total concentration of 15 mM. This preparation was 6.5 M with respect to butyric anhydride (which, upon hydrolysis provides a 13 M concentration in butyric acid molecules).
Butyric acetic anhydride (36 μl, 0.28 mmol) was added to an Eppendorf tube and mixed with 0.85 mg of acid form of Radical 3 in a total concentration of 15 mM. This preparation was 7.5 M with respect to butyric acetic acid.
Li-acetoacetate (22.4 mg, 0.21 mmol) was added to an Eppendorf tube and mixed with 28 μl of a DMSO preparation (25 mM Radical 3 and 0.8 mM 3-Gd). This preparation was 4 M with respect to Li-acetoacetate.
To an Eppendorf tube was added diketene (9.6 mg, 0.11 mmol) and mixed with 4.7 mg of a DMSO preparation of Radical 3 (45 mM) and 3-Gd (1.5 mM). This preparation was 8.5 M with respect to diketene.
Ethyl acetoacetate (45 μl, 0.34 mmol) was added to an Eppendorf tube and mixed with acid form of Radical 2 (0.7 mg, 0.65 μmol) in a total concentration of 15 mM. This preparation was 8 M with respect to ethyl acetoacetate.
Cis-aconitic acid (18.6 mg, 0.11 mmol) was added to an Eppendorf tube and mixed with a 32.5 μl DMSO preparation (25 mM Radical 3 and 0.8 mM 3-Gd). This preparation was 2.5 M with respect to cis-aconitic acid.
Cis-aconitic anhydride (188 mg, 1.2 mmol) was added to an Eppendorf tube and mixed with 2.85 mg (2 μmol) of Radical 1 and 0.98 mg of a 83 μmol/g solution of 3-Gd. This preparation was 9 M with respect to cis-aconitic anhydride.
Succinic acid (42.1 mg, 0.35 mmol) was added to an Eppendorf tube and mixed and mixed with 92 mg of a DMSO preparation (20 mM Radical 3 and 0.8 mM 3-Gd). This preparation was 4 M with respect to succinic acid.
Succinic anhydride (21.5 mg, 0.21 mmol) was added to an Eppendorf tube and mixed with 21.8 mg of a DMSO solution of Radical 3 (30 mM) and of 3-Gd (1 mM). This preparation was 6 M with respect to succinic anhydride.
Succinic-(1)-ethyl ester (111 mg, 0.75 mmol) was added to an Eppendorf tube and mixed with the carboxylic acid form of Radical 2 (2.4 mg, 1.5 μmol) and 3-Gd (3.4 μl of a 14.5 mM solution in water). This preparation was 6 M with respect to succinic-(1)-ethyl ester.
(§1) L-Glutamine (50.9 mg, 0.35 mmol) was added to an Eppendorf tube and dissolved in 29 μl of 12 M NaOH and mixed with 1.7 mg of radical 1 and 3-Gd (2.3 μl of a 14.5 mM water stock solution). This preparation was 4 M with respect to L-glutamine.

[3] = Hydrolysis of the DNP hyperpolarized precursor on dissolution with strong base, followed by 13C-NMR time series; type: physicochemical
Protocol: (§2) The composition from example 1b (25 mg, 0.16 mmol) was transferred from the Eppendorf tube to a sample cup and the sample cup was inserted into a DNP polariser. The composition was hyperpolarised under DNP conditions at 1.2 K in a 3.35 T magnetic field under irradiation with microwave (93.915 GHz). The sample was hyperpolarized for 75 min.
The sample was dissolved in 4 ml water with added NaOH (50 μl of 12M solution). The pH of the dissolved sample was 12. The solution was collected directly into a 10 mm NMR tube and transferred to a 14.1 T magnet where a time series of 5 degree 1D 13C-NMR spectra were recorded with a total delay between the pulses of 1 s.
as §2, with “is (33” for “1b (25”, “0.25” for “0.16”, “90” for “75”
The sample was dissolved in 5 ml water with added NaOH (125 μl of 12M). The solution was collected directly into a 10 mm NMR tube and transferred to a 14.1 […]) T magnet where a time series of 5 degree 1D 13C-NMR spectra were recorded with a total delay between the pulses of 1 s.
(§3) The entire composition from example 2b was transferred from the Eppendorf tube to a sample cup and the sample cup was inserted into a DNP polariser. The composition was hyperpolarised under DNP conditions at 1.2 K in a 3.35 T magnetic field under irradiation with microwave (93.915 GHz). The sample was hyperpolarized for 3 hours.
(§4) The sample was dissolved in 5 ml water with added NaOH (125 μl of 12 M). The solution was collected directly into a 10 mm NMR tube and transferred to a 14.1 T magnet (pH 13) where a time series of 64 five degree 1D 13C-NMR spectra were recorded with a total delay between the pulses of 3 s.
as §2, with “is (20.5” for “1b (25”, “2 hours.” for “75 min.”
(§5) The sample was dissolved in 5 ml water with added NaOH (200 μl of 12 M). The solution was collected directly into a 10 mm NMR tube and transferred to a 14.1 T magnet (pH 12.8) where a time series of 5 degree 1D 13C-NMR spectra were recorded with a total delay between the pulses of 3 s.
as §3, with “The” for “The entire”, “2b was melted on a water-bath and stirred with a magnetic stirrer. 45 mg of this preparation (0.29 mmol)” for “2b”, “90 min.” for “3 hours.”
(§6) The sample was dissolved in 6 ml water with added NaOH (190 μl of 12 M). The solution was collected directly into a 10 mm NMR tube and transferred to a 14.1 T magnet (pH 12.8) where a time series of 64 five degree 1D 13C-NMR spectra were recorded with a total delay between the pulses of 3 s.

[4] = Degradation / isomerisation of the substrate in DNP preparation and dissolution (NMR)
Protocol: as §3, with “2a” for “2b”, “75 min.” for “3 hours.”
The sample was dissolved in 5 ml phosphate buffer pH 7.3 (40 mM+EDTA).
The solution was collected directly into a 10 mm NMR tube and transferred to a 14.1 T magnet where a 90 degree 1D 13C-NMR spectrum was recorded.
as §4, §5
The sample was dissolved in 5 ml 40 mM phosphate buffer pH 7.3+100 mg/l EDTA, thus resulting in an ester concentration of 20 mM. 1 ml of the ester solution was injected through a transfer line into a 10 mm NMR tube placed at 14.1 T and 37° C. The 10 mm NMR tube contained a 500 μl solution of approximately 270 U of a carboxylic-ester hydrolase from porcine liver. A time series of 10 degree 1D 13C-NMR spectra were recorded with a total delay between the pulses of 3 s.
as §5, with “phosphate buffer (40 mM, pH 7.3)” for “water”, “30” for “NaOH (200”, “μl” for “μl of”, “M NaOH. […]” for “M).”, “magnet” for “magnet (pH 12.8)”
as §6, §1
N-acetyl-L-glutamine (57.2 mg, 0.3 mmol) was added to an Eppendorf tube and dissolved in 25.3 μl of 12 M NaOH and mixed with 1.9 mg of radical 1 and 3-Gd (2.3 μl of a 14.5 mM water stock solution).

[5] = dissolved in 12 M NaOH with radical 1
[6] = after 10 s, water with added NaOH, pH 12-13
[7] = with trityl radical, without addition of glass-forming agents
[8] = mixed with DMSO preparation of Radical 3
[9] = after 15 s, strong base (NaOH or NaOD), pH 11-12.2
[10] = after 20 s, water with added NaOH, pH 12.9-13

[2H][13C]([2H])(N)C(=O)O [2-13C-d2-Glycine, reference compound]
High field liquid state T1 [1]: 46 s
Glass formation upon rapid freezing in liquid nitrogen [2, 5]: forms a glass

CCCC(=O)OC(C)=O [Butyric acetic anhydride]
Precursor hydrolyzed [3, 6]: at least 95%
Glass formation upon rapid freezing [2, 7]: formed a glass

O=C(O)/C=C(/CC(=O)O)C(=O)O [Cis-aconitic acid, reference compound]
Amount of trans isomer of aconitate ([4]; after DNP and dissolution in phosphate buffer with NaOH, pH 7.2): about 10%
Glass formation upon rapid freezing in liquid nitrogen [2, 8]: formed a glass

CCOC(=O)C(=O)CCC(=O)O [2-oxoglutaric-(1)-ethyl ester]
Precursor hydrolyzed [3, 9]: at least 95%
Glass formation upon rapid freezing [2, 7]: formed a glass

CCCC(=O)O [Butyric acid, reference compound]
Glass formation upon rapid freezing in liquid nitrogen ([2]; mixed with glycerol solution of Radical 1): formed a glass
Glass formation upon rapid freezing [2, 7]: crystallizes

CCOC(=O)C(N)Cc1ccccc1 (stereo not drawn) [Ethyl phenylalanine]
Precursor hydrolyzed [3, 9]: at least 95%
Glass formation upon rapid freezing [2, 7]: formed a glass

C=C1CC(=O)O1 [diketene, 4-Methylideneoxetan-2-one]
Precursor hydrolyzed [3, 6]: at least 95%
Glass formation upon rapid freezing in liquid nitrogen [2, 8]: formed a glass

CCOC(=O)CCC(=O)O [Succinic-(1)-ethyl ester]
Precursor hydrolyzed [3, 10]: at least 95%
Glass formation upon rapid freezing [2, 7]: formed a glass

CCOC(=O)C(O)CC(=O)O (stereo not drawn) [Malic-(1)-ethyl ester]
Precursor hydrolyzed [3, 10]: at least 95%
Glass formation upon rapid freezing [2, 7]: formed a glass

CC(=O)CC(=O)[O-].[Li+] [Li-acetoacetate, reference compound]
Amount of degradation (decarboxylation) ([4]; 1H NMR on DNP sample following dissolution in phosphate buffer pH 7.3): 40%
Glass formation upon rapid freezing in liquid nitrogen [2, 8]: formed a glass

[2H][13C]([2H])(NC(C)=O)C(=O)O [2-13C-d2-N-acetyl glycine]
High field liquid state T1 [1]: 40 s
Glass formation upon rapid freezing in liquid nitrogen [2, 5]: formed a glass

NC(=O)CC[C@H](N)C(=O)O [L-Glutamine, reference compound]
Amount of degradation in the DNP preparation ([4]; 4 M): 14%
Glass formation upon rapid freezing in liquid nitrogen [2, 5]: formed a glass

CCCC(=O)OC(=O)OCC [Butyric ethylcarbonic anhydride]
Glass formation upon rapid freezing ([2]; absence of a glass forming additive, Example 1d (Prophetic)): forms a glass

O=C(O)/C=C(/CC(=O)O)C(=O)O [cis-aconitate]
T1 of the hydrolyzed product ([1]; 14.1 T and 37° C.): 24 s

CCCC(=O)OC(=O)CCC [Butyric anhydride]
Precursor hydrolyzed [3, 6]: at least 95%
Glass formation upon rapid freezing [2, 7]: formed a glass

O=C1CCC(=O)O1 [Succinic anhydride]
Precursor hydrolyzed [3, 6]: at least 95%
Glass formation upon rapid freezing in liquid nitrogen [2, 8]: formed a glass

CCOC(=O)C1CSC(=O)N1 (stereo not drawn) [Ethyl OTZ, 2-Oxothiazolidine-4-carboxylic ethyl ester]
Precursor hydrolyzed ([3]; in less than 10 s, water with added NaOH, pH 11-12.6): at least 95%

O=C(O)CCC(=O)O [succinate]
T1 of the hydrolyzed product ([1]; 14.1 T and 37° C.): 33 s

O=C(O)CC1=CC(=O)OC1=O [Cis-aconitic anhydride, cis-Aconitic anhydride]
Presence of trans-aconitate ([4]; after DNP and hydrolysis with NaOH, pH 12.8): neglectable
Precursor hydrolyzed [3, 6]: at least 95%
Glass formation upon rapid freezing [2, 7]: formed a glass

O=C(O)CC(O)C(=O)O (stereo not drawn) [Malic acid, reference compound]
Glass formation upon rapid freezing in liquid nitrogen [2, 8]: formed a glass

O=C(O)CCC(=O)O [Succinic acid, reference compound]
Glass formation upon rapid freezing in liquid nitrogen [2, 8]: formed a glass

CC(=O)CC(=O)O [acetoacetate]
T1 of the C1 position in the hydrolyzed product ([1]; 14.1 T and 37° C.): 32 s
T1 of the hydrolyzed product ([1]; 14.1 T and 37° C.): 32 s
Degradation (decarboxylation) of acetoacetate formed ([4]; after esterase hydrolysis of ethyl acetoacetate, pH 7.3): No degradation
Degradation (decarboxylation) of acetoacetate formed ([4]; after hydrolysis of precursor with NaOH, pH 12.8-13): No substantial degradation

N[C@@H](Cc1ccccc1)C(=O)O [L-Phenylalanine, reference compound]
Glass formation upon rapid freezing in liquid nitrogen [2, 5]: formed a glass

Source: patent US9694090B2, “Process for preparing hyperpolarized substrates and method for MRI” (priority 2010, dated 2017)
